From PubChem BioAssay AID248 (DTP/NCI, 2004)
“And” between values parts separate entries of the source, which are not always exact repeats. Equal values may be shown once. Inconclusive results and toxic doses are left out.

Tested on: L1210 leukemia ip in BDF1 mice, survival T/C
Assay: NCI In Vivo Anticancer Drug Screen. Data for tumor model L1210 Leukemia (intraperitoneal) in B6D2F1 (BDF1) mice
Settings: endpoint: mean survival time, higher = longer survival
Summary of the method: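 In this screen, tumor-bearing mice given compound are compared to those given vehicle, and their survival values are reported as a treated-to-control quotient.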

[1] = dose: 100.0 mg/kg/injection, schedule: Q04DX003 (ip), vehicle: Klucel (hydroxypropylcellulose) (HPC)
[2] = dose: 200.0 mg/kg/injection, schedule: Q04DX003 (ip), vehicle: Klucel (hydroxypropylcellulose) (HPC)
[3] = dose: 400.0 mg/kg/injection, schedule: Q04DX003 (ip), vehicle: Klucel (hydroxypropylcellulose) (HPC)
[4] = dose: 100.0 mg/kg/injection, schedule: Q04DX002 (ip), vehicle: saline with Tween-80
[5] = dose: 200.0 mg/kg/injection, schedule: Q04DX002 (ip), vehicle: saline with Tween-80
[6] = dose: 100.0 mg/kg/injection, schedule: Q01DX001 (ip), vehicle: Klucel (hydroxypropylcellulose) (HPC)
[7] = dose: 100.0 mg/kg/injection, schedule: Q01DX009 (ip), vehicle: Klucel (hydroxypropylcellulose) (HPC)
[8] = dose: 200.0 mg/kg/injection, schedule: Q01DX001 (ip), vehicle: Klucel (hydroxypropylcellulose) (HPC)
[9] = dose: 200.0 mg/kg/injection, schedule: Q01DX009 (ip), vehicle: Klucel (hydroxypropylcellulose) (HPC)
[10] = dose: 400.0 mg/kg/injection, schedule: Q01DX001 (ip), vehicle: Klucel (hydroxypropylcellulose) (HPC)
[11] = dose: 400.0 mg/kg/injection, schedule: Q01DX009 (ip), vehicle: Klucel (hydroxypropylcellulose) (HPC)
[12] = dose: 100.0 mg/kg/injection, schedule: Q04DX003 (ip), vehicle: saline with Tween-80
[13] = dose: 200.0 mg/kg/injection, schedule: Q04DX003 (ip), vehicle: saline with Tween-80
[14] = dose: 400.0 mg/kg/injection, schedule: Q04DX003 (ip), vehicle: saline with Tween-80
[15] = dose: 100.0 mg/kg/injection, schedule: Q01DX009 (ip), vehicle: saline with Tween-80
[16] = dose: 200.0 mg/kg/injection, schedule: Q01DX009 (ip), vehicle: saline with Tween-80
[17] = dose: 400.0 mg/kg/injection, schedule: Q01DX009 (ip), vehicle: saline with Tween-80
[18] = dose: 12.5 mg/kg/injection, schedule: Q01DX009 (ip), vehicle: Klucel (hydroxypropylcellulose) (HPC)
[19] = dose: 25.0 mg/kg/injection, schedule: Q01DX009 (ip), vehicle: Klucel (hydroxypropylcellulose) (HPC)
[20] = dose: 50.0 mg/kg/injection, schedule: Q01DX009 (ip), vehicle: Klucel (hydroxypropylcellulose) (HPC)

For COc1cccc(CCNC(=O)CC#N)c1OC, the T/C (dose: 100.0 mg/kg/injection, schedule: Q01DX009 (ip), vehicle: saline) was 90 % of control, the T/C [1] was 100 % of control and the T/C (dose: 200.0 mg/kg/injection, schedule: Q01DX009 (ip), vehicle: saline) was 95 % of control. For the same compound, the T/C [2] was 102 % of control and the T/C [3] was 97 % of control.
O=S(=O)(O)C(O)CC(c1ccccc1)S(=O)(=O)O (centres undefined) was tested, and the T/C (dose: 100.0 mg/kg/injection, schedule: Q04DX002 (ip), vehicle: Klucel (hydroxypropylcellulose) (HPC)) was 106 % of control and the T/C (dose: 400.0 mg/kg/injection, schedule: Q04DX002 (ip), vehicle: Klucel (hydroxypropylcellulose) (HPC)) was 98 % of control.
O=C(Nc1ccc(C2=NCCN2)cc1)c1ccc(-c2ccc(C(=O)Nc3ccc(C4=NCCN4)cc3)cc2)cc1 was tested, and the T/C (dose: 111.0 mg/kg/injection, schedule: Q01DX Z (ip), vehicle: carboxymethylcellulose (CMC)) was 105 % of control, the T/C (dose: 166.0 mg/kg/injection, schedule: Q01DX Z (ip), vehicle: carboxymethylcellulose (CMC)) was 101 % of control and the T/C (dose: 250.0 mg/kg/injection, schedule: Q01DX Z (ip), vehicle: carboxymethylcellulose (CMC)) was 106 % of control. The T/C (dose: 375.0 mg/kg/injection, schedule: Q01DX Z (ip), vehicle: carboxymethylcellulose (CMC)) was 109 % of control.
CC(C)c1ccc(C2(C)CCCCC2=O)cc1 (centres undefined) was tested, and the T/C (dose: 100.0 mg/kg/injection, schedule: Q01DX001 (ip), vehicle: other) was 101 % of control, the T/C (dose: 200.0 mg/kg/injection, schedule: Q01DX001 (ip), vehicle: other) was 103 % of control and the T/C (dose: 400.0 mg/kg/injection, schedule: Q01DX001 (ip), vehicle: other) was 93 % of control.
CCCCNc1nnc(N)s1 was tested, and the T/C [4] was 98 % of control and the T/C [5] was 98 % of control.
With CCOCCOCCOC(C)Oc1ccc(C(=O)OC)cc1 (centres undefined) the T/C (dose: 100.0 mg/kg/injection, schedule: Q04DX002 (ip), vehicle: saline) was 99 % of control, the T/C (dose: 200.0 mg/kg/injection, schedule: Q04DX002 (ip), vehicle: saline) was 96 % of control and the T/C (dose: 400.0 mg/kg/injection, schedule: Q04DX002 (ip), vehicle: saline) was 89 % of control.
CCCCCCCCCCCCOc1ccccc1C=O was tested, and the T/C [1] was 101 % of control, the T/C [2] was 106 % of control and the T/C [3] was 96 % of control.
With O=C(NC(=O)C(Cl)Cl)OC1c2cc(Cl)ccc2-c2c(Cl)cc(Cl)cc21 (centres undefined) the T/C [6] was 90 % of control, the T/C [7] was 95 % of control and the T/C [1] was 91 % of control. The T/C [8] was 98 % of control, the T/C [9] was 89 % of control and the T/C [2] was 91 % of control. The T/C [10] was 88 % of control and the T/C [3] was 88 % of control.
With CC1CCCN(C(=O)Nc2cccc(C(F)(F)F)c2)C1 (centres undefined) the T/C (dose: 100.0 mg/kg/injection, schedule: Q01DX009 (ip), vehicle: gum acacia) was 100 % of control, the T/C (dose: 200.0 mg/kg/injection, schedule: Q01DX009 (ip), vehicle: gum acacia) was 110 % of control and the T/C (dose: 400.0 mg/kg/injection, schedule: Q01DX009 (ip), vehicle: gum acacia) was 99 % of control.
For BrCc1c(CBr)c(CBr)c(CBr)c(CBr)c1CBr, the T/C [7] was 98 % of control, the T/C [1] was 94 % of control and the T/C [9] was 97 % of control. For the same compound, the T/C [2] was 96 % of control, the T/C [11] was 97 % of control and the T/C [3] was 96 % of control.
For Cc1ccccc1SSc1ccccc1C, the T/C [1] was 94 % of control, the T/C [2] was 97 % of control and the T/C [3] was 91 % of control.
With NC1(C(=O)O)CCCc2ccc(N(CCCl)CCCl)cc21 (centres undefined) the T/C (dose: 0.45 mg/kg/injection, schedule: Q01DX009 (ip), vehicle: carboxymethylcellulose (CMC)) was 101 % of control, the T/C (dose: 0.95 mg/kg/injection, schedule: Q01DX009 (ip), vehicle: carboxymethylcellulose (CMC)) was 124 % of control and the T/C (dose: 1.8 mg/kg/injection, schedule: Q01DX009 (ip), vehicle: carboxymethylcellulose (CMC)) was 119 % of control. The T/C (dose: 6.0 mg/kg/injection, schedule: Q01DX001 (ip), vehicle: carboxymethylcellulose (CMC)) was 121 % of control, the T/C (dose: 8.3 mg/kg/injection, schedule: Q01DX009 (ip), vehicle: carboxymethylcellulose (CMC)) was 152 % of control and the T/C (dose: 10.8 mg/kg/injection, schedule: Q01DX009 (ip), vehicle: carboxymethylcellulose (CMC)) was 168 % of control. The T/C (dose: 11.0 mg/kg/injection, schedule: Q01DX001 (ip), vehicle: carboxymethylcellulose (CMC)) was 114 % of control and 124 % of control, the T/C (dose: 12.5 mg/kg/injection, schedule: Q01DX009 (ip), vehicle: carboxymethylcellulose (CMC)) was 163 % of control and 165 % of control and the T/C (dose: 16.0 mg/kg/injection, schedule: Q01DX001 (ip), vehicle: carboxymethylcellulose (CMC)) was 112 % of control. The T/C (dose: 18.0 mg/kg/injection, schedule: Q01DX009 (ip), vehicle: carboxymethylcellulose (CMC)) was 161 % of control, the T/C (dose: 48.0 mg/kg/injection, schedule: Q01DX001 (ip), vehicle: carboxymethylcellulose (CMC)) was 114 % of control and the T/C (dose: 50.0 mg/kg/injection, schedule: Q01DX001 (ip), vehicle: carboxymethylcellulose (CMC)) was 123 % of control.
With Cc1cc(Br)cnc1Cl the T/C [12] was 96 % of control, the T/C [13] was 94 % of control and the T/C [14] was 96 % of control.
For O=c1c(Br)cocc1Br, the T/C [15] was 92 % of control, the T/C [16] was 97 % of control and the T/C [17] was 102 % of control.
For c1ccc2cc(C3OCC4(CCCCC4)CO3)ccc2c1, the T/C [6] was 96 % of control, the T/C [8] was 100 % of control and the T/C [10] was 100 % of control.
For N#CCNC(=O)c1ccccc1, the T/C [18] was 101 % of control, the T/C [19] was 104 % of control and the T/C (dose: 25.0 mg/kg/injection, schedule: Q04DX003 (ip), vehicle: Klucel (hydroxypropylcellulose) (HPC)) was 98 % of control. The T/C [20] was 102 % of control and the T/C (dose: 50.0 mg/kg/injection, schedule: Q04DX003 (ip), vehicle: Klucel (hydroxypropylcellulose) (HPC)) was 98 % of control.
For Cc1c(Cl)cccc1NC(=O)N1CCCC(C)C1 (centres undefined), the T/C [15] was 94 % of control and 90 % of control, the T/C [4] was 96 % of control and 89 % of control and the T/C [12] was 96 % of control. The T/C [16] was 90 % of control, the T/C [5] was 86 % of control and 89 % of control and the T/C [13] was 102 % of control. The T/C [17] was 93 % of control and 95 % of control, the T/C (dose: 400.0 mg/kg/injection, schedule: Q04DX002 (ip), vehicle: saline with Tween-80) was 93 % of control and 89 % of control and the T/C [14] was 97 % of control.
In the case of O=C1c2cccc3cc([N+](=O)[O-])cc(c23)C(=O)N1CCCN(CCO)CCO, the T/C [18] is reported as 104 % of control, the T/C [19] is reported as 105 % of control and the T/C [20] is reported as 91 % of control.
With CC[N+](C)(CC)c1ccc(/C=N\N(C)C)cc1 the T/C (dose: 6.25 mg/kg/injection, schedule: Q01DX009 (ip), vehicle: Klucel (hydroxypropylcellulose) (HPC)) was 96 % of control, the T/C [18] was 108 % of control and the T/C [19] was 86 % of control.
With O=C1OC(=O)C2C(c3ccccc3)=CC(c3ccccc3)=CC12 (centres undefined) the T/C (dose: 100.0 mg/kg/injection, schedule: Q01DX001 (ip), vehicle: saline) was 98 % of control, the T/C (dose: 200.0 mg/kg/injection, schedule: Q01DX001 (ip), vehicle: saline) was 107 % of control and the T/C (dose: 400.0 mg/kg/injection, schedule: Q01DX001 (ip), vehicle: saline) was 102 % of control.
COC(=O)CCNCc1ccccc1 was tested, and the T/C [7] was 103 % of control, the T/C [1] was 106 % of control and the T/C [9] was 99 % of control. The T/C [2] was 98 % of control, the T/C [11] was 99 % of control and the T/C [3] was 103 % of control.
For O=C(NO)c1ccccn1, the T/C (dose: 90.0 mg/kg/injection, schedule: Q01DX015 (ip), vehicle: water) was 97 % of control, the T/C (dose: 130.0 mg/kg/injection, schedule: Q01DX015 (ip), vehicle: water) was 101 % of control and the T/C (dose: 133.0 mg/kg/injection, schedule: Q01DX015 (ip), vehicle: water) was 97 % of control. The T/C (dose: 200.0 mg/kg/injection, schedule: Q01DX015 (ip), vehicle: water) was 110 % of control.
In the case of O=C(O)c1ccc(NC(=O)c2ccc(C(=O)Nc3ccc(C(=O)O)cc3)cc2)cc1, the T/C (dose: 15.0 mg/kg/injection, schedule: Q01DX Z (ip), vehicle: methylcellulose (MC)) is reported as 101 % of control, the T/C (dose: 60.0 mg/kg/injection, schedule: Q01DX Z (ip), vehicle: methylcellulose (MC)) is reported as 98 % of control and the T/C (dose: 120.0 mg/kg/injection, schedule: Q01DX Z (ip), vehicle: methylcellulose (MC)) is reported as 95 % of control.
